Test results reported in PubChem BioAssay (NCI).
Several values for one entry are separate records, joined by “and”; a condition that tells them apart may be missing. Identical values can stand only once.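 Compound exposure: 48 hours, 5 concentrations, 96-well plates. The concentration for 50% growth inhibition is given as GI50. TGI: total growth inhibition.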

Key:
Experiment in all cases: growth of human tumour cells (NCI), 48 h
RXF 393 renal = test system: RXF 393 renal
MOLT-4 leukemia = test system: MOLT-4 leukemia
SK-MEL-28 melanoma = test system: SK-MEL-28 melanoma
UACC-62 melanoma = test system: UACC-62 melanoma
DU-145 prostate = test system: DU-145 prostate
KM12 colon = test system: KM12 colon
HCT-15 colon = test system: HCT-15 colon
OVCAR-4 ovarian = test system: OVCAR-4 ovarian
COLO 205 colon = test system: COLO 205 colon
SK-MEL-5 melanoma = test system: SK-MEL-5 melanoma

SMILES | GI50 (RXF 393 renal) [µM] | TGI (RXF 393 renal) | GI50 (MOLT-4 leukemia) [µM] | TGI (MOLT-4 leukemia) | GI50 (SK-MEL-28 melanoma) [µM] | TGI (SK-MEL-28 melanoma) [µM] | GI50 (UACC-62 melanoma) | TGI (UACC-62 melanoma) | GI50 (DU-145 prostate) [µM] | TGI (DU-145 prostate) | GI50 (KM12 colon) | TGI (KM12 colon) [µM] | GI50 (HCT-15 colon) [µM] | TGI (HCT-15 colon) | GI50 (OVCAR-4 ovarian) | TGI (OVCAR-4 ovarian) | GI50 (COLO 205 colon) [µM] | TGI (COLO 205 colon) | GI50 (SK-MEL-5 melanoma) | TGI (SK-MEL-5 melanoma) [µM]
N#C[Se]CCN1C(=O)c2ccccc2C1=O | 1.37 | 2.86 µM | 2.01 | 23.9 µM | 1.8 | 4.99 | 1.52 µM | 3.74 µM | 2.58 | 7.77 µM | 3.14 µM | 45.3 | 3.58 | 14.7 µM | 4.17 µM | 23.9 µM | 3.07 | 9.05 µM | – | –
Oc1c(Br)cc(Cl)cc1C(c1cc(Cl)cc(Br)c1O)C(Cl)(Cl)Cl | 2.73 | 8.77 µM | 3.32 | 9.95 µM | 3.7 | 14.9 | 1.94 µM | 8.99 µM | 4.74 | 16.2 µM | 2.8 µM | 9.3 | 1.39 | 9.06 µM | 2.86 µM | 13.1 µM | 1.87 | 3.51 µM | 1.64 µM | 3.83
CC(C)c1ccc2c(c1)CCC1C2CCCC1(C)NCc1ccccc1 (stereo not given) | 2.44 | 4.66 µM | 3.25 | 12.1 µM | 1.98 | 3.83 | 1.96 µM | 4.39 µM | 8.61 | 24.3 µM | 3.07 µM | 11.6 | 2.87 | 9.05 µM | 7.26 µM | 19.8 µM | 0.332 | 1.11 µM | 1.82 µM | 3.35
COc1ccccc1CNCCCN1C(=O)c2ccc3c4c(ccc(c24)C1=O)C(=O)N(CCCNCc1ccccc1OC)C3=O | 0.142 | 0.281 µM | 0.112 | 0.455 µM | 0.436 | 0.876 | 0.198 µM | 0.407 µM | 0.163 | 0.309 µM | 0.116 µM | 0.272 | 0.191 | 0.465 µM | 0.101 µM | 0.231 µM | 0.121 | 0.256 µM | 0.155 µM | 0.29
CC(=O)O[C@H]1C[C@@H]2[C@@]3(C)CC[C@H]4C[C@@]4(C)[C@@H]3CC[C@@]2(C)C2=CCC3=C(COC3=O)[C@]21C | 21.2 | 52.6 µM | 33.5 | > 100 µM | 21.6 | 44 | 16.6 µM | 36.4 µM | 15.6 | 38.5 µM | 18.7 µM | 43.6 | 21 | 56.1 µM | 25 µM | 60.2 µM | 34 | > 100 µM | 17.7 µM | 34.5
CNCc1cccc2c1OCCOCCOCCNS(=O)(=O)c1ccc(cc1)-c1cnc(N)c(n1)C(=O)N2 | 0.353 | 1.72 µM | 0.557 | 7.68 µM | 1.66 | 3.27 | 1.61 µM | 2.99 µM | 1.24 | 3.36 µM | 1.22 µM | 2.98 | 4.86 | 18.9 µM | 1.5 µM | 6.42 µM | 1.02 | 2.44 µM | 1.69 µM | 3.29
OC[C@H]1C[C@](O)(c2ccc(F)cc2)[C@@H](c2ccc(F)cc2)O1 | 52.7 | > 100 µM | > 100 | > 100 µM | > 100 | > 100 | > 100 µM | > 100 µM | > 100 | > 100 µM | > 100 µM | > 100 | > 100 | > 100 µM | > 100 µM | > 100 µM | > 100 | > 100 µM | > 100 µM | > 100
O=C(NO)c1ccc(CNc2cccc3nc(C4CC4)n(-c4ccccc4)c(=O)c23)cc1 | 1.42 | 3.14 µM | 2.79 | 23.3 µM | 2.01 | 4.26 | 1.96 µM | 4.66 µM | 2.52 | 13.7 µM | – | – | 1.98 | 6.33 µM | 2.28 µM | 21.9 µM | 2.22 | 5.59 µM | 2.15 µM | 4.8
COc1nc(N)nc2nc[nH]c12 | – | 489 µM and 800 µM and 914 µM | > 800 | 500 µM and > 800 µM and > 1000 µM | > 1000 | > 1000 | 441 µM and 349 µM | 429 µM and 800 µM and > 1000 µM | 720 | 500 µM and > 1000 µM | > 800 µM and 842 µM | > 1000 | > 800 | 500 µM and > 800 µM and > 1000 µM | > 800 µM and 982 µM | 500 µM and > 800 µM and > 1000 µM | > 1000 | 419 µM and > 800 µM and > 1000 µM | > 800 µM and 782 µM | > 1000
CCOC(=O)C#Cc1c(C(=O)OCC)nnn1[C@@H]1O[C@H](COC)[C@@H](OC)[C@H]1OC | 1.97 | 4.14 µM | 1.92 | 4.39 µM | 3.49 | 12.8 | 2.19 µM | 5.41 µM | 10.6 | 22.4 µM | 16.7 µM | 33.3 | 2.56 | 6.66 µM | 2.02 µM | 4.43 µM | 1.94 | 3.83 µM | 14.3 µM | 27.4
